# Experimental data taken from patent US20050250837A1, “Use of C-Raf inhibitors for the treatment of neurodegenerative diseases” (priority 2002, published 2005).
# Assays:
# Format in all cases: cell-based, rat
# [1] = system: cerebellar granule neurons; assay: LK-induced apoptosis of cultured cerebellar granule neurons (MTT viability)
# Method: Cultured cerebellar granule neurons undergo apoptosis when switched from HK to medium containing LK (D'Mello et al., 1993). […] Neuronal cultures were switched to medium containing LK, or LK medium containing different doses of GW5074. Cell viability was quantified 24 hours later. Control cultures received HK medium. […] Protection against LK-induced apoptosis is maximal at 1 uM.
# Granule neuron cultures were obtained from dissociated cerebella of 7-8 day old rats as described previously (D'Mello et al., 1993). Cells were plated in Basal Eagle's Medium with Earles salts (BME) supplemented with 10% fetal bovine serum (FBS), 25 mM KCl, 2 mM glutamine (Gibco-BRL), and 100 ug/ml gentamycin on dishes coated with poly-L-lys ine in 24-well dishes at a density 1.0×10^6 cells/well, 1.2×10^7 cells/60 mm dish, or 3.0×10^7 cells/100 mm dish. Cytosine arabinofuranoside (10 uM) was added to the culture medium 18-22 hours after plating to prevent replication of non-neuronal cells. Cultures were maintained for 6-7 days prior to experimental treatments. For this, the cells were rinsed once and then maintained in low K^+ medium (serum-free BME medium, 5 mM KCl) or high K^+ medium (serum-free BME medium, supplemented with 20 mM KCl). When used to treat cultures, GW5074 was added at the time when cells were switched to LK medium. Treatment of cultures with pharmacological inhibitors was initiated 15 min prior to rinsing and was maintained through the subsequent incubation in LK or HK medium unless specified otherwise. For MPP+ and methylmercury treatments, 7-8 day old cultures were switched to HK medium containing 200 uM MPP+ or 0.5 uM methylmercury. Viability was assayed 24 hours later.
# Neuronal survival was quantified by the MTT assay as previously described (Koulich et al., 2001). Briefly, the tetrazolium salt MTT [3-(4,5-dimethyl-2-thiazolyl)-2,5-diphenyl-2H tetrazolium bromide] was added to the cultures at a final concentration of 1 mg/ml, and incubation of the culture was continued in the CO2 incubator for a further 30 min at 37° C. The assay was stopped by adding lysis buffer [20% SDS in 50% N,N-dimethyl formamide, pH 4.7]. The absorbance was measured specrophotometrically at 570 nm after an overnight incubation at room temperature. The absorbance of a well without cells was used as background and subtracted. Results obtained using the MTT assays were confirmed using the fluorescein-diacetate method for quantification of cell viability, as previously described (D'Mello et al., 1993). Data are presented as mean+/−standard deviation. Statistical analysis was performed using ANOVA and Student-Neuman-Keuls' test.
# B-Raf = assay: Activity of B-Raf immunoprecipitated from neuronal lysates, MEK substrate; conditions: LK + 1 uM GW5074, 1 hour
# Method: The reaction mixture was subjected to Western analysis using a phospho-MEK antibody as probe.
# Activities of endogenous C-Raf and B-Raf activity was assayed by measuring the ability of kinase immunoprecipitated from neuronal lysates to phosphorylate a kinase-dead recombinant GST-MEK1 substrate. Following immunoprecipitation and multiple washes with lysis buffer, lysis buffer supplemented with 350 mM NaCl, and kinase buffer (25 mM HEPES pH 7.4 and 10 mM MgCl2), in vitro kinase assays are performed on the immune complexes using purified recombinant GST-MEK1 K97M protein as a substrate in kinase buffer supplemented with 85 μM ATP for 35 minutes at 30° C. Reactions are stopped by the addition of 3×SDS sample buffer and boiled for five minutes. Proteins are resolved by SDS-PAGE and subjected to Western blotting. The level of phosphorylated MEK is detected by a phospho-MEK antibody.
# [2] = system: cerebellar granule neurons; assay: Methylmercury-induced cell death in cerebellar granule neurons; conditions: HK + 0.5 uM methylmercury, different concentrations of GW5074, 24 hours
compound,measurement,setting,value
"O=C1Nc2ccc(I)cc2C1=Cc1cc(Br)c(O)c(Br)c1 [GW5074, 5-Iodo-3-[(3,5-dibromo-4-hydroxyphenyl)methylene]-2-indolinone]",neuroprotection against LK-induced apoptosis,[1]; 5 uM and 10 uM,Neuroprotection by GW5074 is also observed
same,protection against LK-induced apoptosis,"[1]; LK + 1 uM GW5074, 24 hours",prevents LK-induced apoptosis
same,concentration of maximal protection against LK-induced apoptosis,[1]; viability 24 hours after switch to LK,1 µM
same,B-Raf activity in neurons,B-Raf,elevated further
same,methylmercury-induced cell death,[2],reduced methylmercury-induced cell death
